Patent publication EP4725941A1, “ARYLAMIDE DERIVATIVE HAVING ANTITUMOR ACTIVITY” (priority 2020, dated 2021)
Where two headings read alike, the source gives them in different places.

Tests used:
NCI-H2122 = experiment: Cell proliferation-inhibiting activity (ATP in viable cells, CellTiter-Glo), NCI-H2122; format: cell-based, human; conditions: read-out: NCI-H2122 IC50
[1] = Human liver microsome stability; format: in vitro ADME; conditions: human liver microsomes, pH 7.4
MEK1 = target: T1, MEK1 (Homo sapiens, UniProt Q02750); experiment: MEK1-inhibiting activity, fluorescent polarization method (CRAF/MEK1/ERK2 cascade, IMAP); format: biochemical; conditions: Table 3; read-out: MEK1 IC50
T1 construct: purchased Thermo Fisher Scientific Inc. (MEK1, CRAF); Carna Biosciences, Inc. (ERK2)
T1 sequence (Q02750 whole entry): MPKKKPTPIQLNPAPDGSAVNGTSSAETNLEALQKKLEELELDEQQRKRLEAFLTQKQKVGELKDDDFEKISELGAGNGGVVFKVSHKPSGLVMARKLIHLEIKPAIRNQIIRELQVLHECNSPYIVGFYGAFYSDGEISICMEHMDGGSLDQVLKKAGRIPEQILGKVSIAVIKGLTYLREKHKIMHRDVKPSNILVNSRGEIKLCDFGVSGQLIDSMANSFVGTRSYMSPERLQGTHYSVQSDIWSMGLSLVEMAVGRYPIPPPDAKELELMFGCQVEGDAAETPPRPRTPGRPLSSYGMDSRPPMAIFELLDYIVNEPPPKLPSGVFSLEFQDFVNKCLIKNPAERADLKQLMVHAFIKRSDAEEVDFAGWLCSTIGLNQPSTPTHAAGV
Method: The MEK1-inhibiting activity of the compounds listed in Table 3 below were evaluated by the fluorescent polarization method as described below.

BRAF = target: T2, BRAF (Homo sapiens, UniProt P15056); experiment: BRAF-inhibiting activity, time-resolved fluorescence-fluorescence resonance energy transfer assay; format: biochemical
T2 construct: purchased Eurofins Genomics KK; (BRAF); Thermo Fisher Scientific Inc. (MEK1)
T2 sequence (P15056 417-766 limits assumed): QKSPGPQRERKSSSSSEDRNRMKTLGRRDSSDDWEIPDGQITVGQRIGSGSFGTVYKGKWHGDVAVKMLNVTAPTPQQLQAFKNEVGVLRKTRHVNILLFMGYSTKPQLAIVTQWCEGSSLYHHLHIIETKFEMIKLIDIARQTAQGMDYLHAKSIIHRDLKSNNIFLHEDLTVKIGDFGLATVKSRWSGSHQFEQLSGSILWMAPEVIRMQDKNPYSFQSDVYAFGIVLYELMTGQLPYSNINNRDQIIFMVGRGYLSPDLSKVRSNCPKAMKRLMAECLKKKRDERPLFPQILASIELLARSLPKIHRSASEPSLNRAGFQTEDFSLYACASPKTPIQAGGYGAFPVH
Method: The BRAF-inhibiting activity of the compounds listed in Table 3 below was evaluated by the time-resolved fluorescence-fluorescence resonance energy transfer assay as described below.

A549 = experiment: Cell proliferation-inhibiting activity (ATP in viable cells, CellTiter-Glo), A549; format: cell-based, human; conditions: A549, 96 h, read-out: A549 IC50
Calu-6 = experiment: Cell proliferation-inhibiting activity (ATP in viable cells, CellTiter-Glo), Calu-6; format: cell-based, human; conditions: human lung cancer cells, 4 days, read-out: Calu-6 IC50
[2] = NCI-H2122, 96 h, human lung cancer cells, 4 days
[3] = human lung cancer cells, 4 days

Row | SMILES | IC50 (NCI-H2122; [2]) | microsomal CLint at 0.99 µM [1] | IC50 (MEK1) | IC50 (BRAF; read-out: BRAF IC50; Table 3) | IC50 (A549; [3]) | IC50 (NCI-H2122; [3]) | IC50 (Calu-6) | IC50 (BRAF; Table 3; read-out: BRAF IC50) | IC50 (NCI-H2122; Homo sapiens, NCI-H2122, 96 h) | IC50 (A549; Homo sapiens) | IC50 (Calu-6; Calu-6, 96 h)
1 | CNS(C)(=O)=Nc1cc(Cc2cc(C(N)=O)c(Nc3ccc(I)cc3F)c(F)c2F)ccn1 (stereo not drawn) [Compound C-4, 3,4-Difluoro-2-(2-fluoro-4-iodoanilino)-5-[[2-[[methyl-(methylamino)-oxo-λ6-sulfanylidene]amino]pyridin-4-yl]methyl]benzamide] | 43 nM | 40 µL/min/mg | 224 nM | 23 nM | 7 nM | – | – | – | – | – | –
2 | CNS(=O)(=O)Nc1nccc(Cc2cc(C(N)=O)c(Nc3ccc(I)cc3C)c(F)c2F)c1F [Compound C-5, 3,4-Difluoro-5-[[3-fluoro-2-(methylsulfamoylamino)pyridin-4-yl]methyl]-2-(4-iodo-2-methylanilino)benzamide] | 4 nM | 29 µL/min/mg | 56 nM | 3 nM | 22 nM | – | – | – | – | – | –
3 | COCCNS(=O)(=O)Nc1cccc(Cc2cc(C(N)=O)c(Nc3ccc(I)cc3F)c(F)c2F)c1F [Compound D-1, 3,4-Difluoro-2-(2-fluoro-4-iodoanilino)-5-[[2-fluoro-3-(2-methoxyethylsulfamoylamino)phenyl]methyl]benzamide] | 5 nM | 25 µL/min/mg | 96 nM | 1 nM | 9 nM | – | – | – | – | – | –
4 | COCC(C)(C)NS(=O)(=O)Nc1cccc(Cc2cc(C(N)=O)c(Nc3ccc(I)cc3F)c(F)c2F)c1F [Compound D-2, 3,4-Difluoro-2-(2-fluoro-4-iodoanilino)-5-[[2-fluoro-3-[(1-methoxy-2-methylpropan-2-yl)sulfamoylamino]phenyl]methyl]benzamide] | 5 nM | 103 µL/min/mg | 242 nM | 3 nM | 9 nM | – | – | – | – | – | –
5 | NC(=O)c1cc(Cc2cccc(NS(=O)(=O)NC[C@H]3CCCO3)c2F)c(F)c(F)c1Nc1ccc(I)cc1F [Compound D-3, 3,4-Difluoro-2-(2-fluoro-4-iodoanilino)-5-[[2-fluoro-3-[[(2R)-oxolan-2-yl]methylsulfamoylamino]phenyl]methyl]benzamide] | 12 nM | 68 µL/min/mg | 130 nM | 1 nM | 26 nM | – | – | – | – | – | –
6 | CCS(=O)(=O)Nc1cccc(Cc2cc(C(=O)NC3CC3)c(Nc3ccc(I)cc3F)c(F)c2F)c1F [Compound D-8, N-Cyclopropyl-5-[[3-(ethylsulfonylamino)-2-fluorophenyl]methyl]-3,4-difluoro-2-(2-fluoro-4-iodoanilino)benzamide] | 8 nM | 20 µL/min/mg | 161 nM | 21 nM | 66 nM | – | – | – | – | – | –
7 | NC(=O)c1cc(Cc2cccc(NS(N)(=O)=O)c2F)c(F)c(F)c1Nc1ccc(I)cc1F [Compound E-8, 3,4-Difluoro-2-(2-fluoro-4-iodoanilino)-5-[[2-fluoro-3-(sulfamoylamino)phenyl]methyl]benzamide] | 2 nM | 1 µL/min/mg | 137 nM | 2 nM | 3 nM | – | – | – | – | – | –
8 | NC(=O)c1cc(Cc2cccc(NS(=O)(=O)CCCF)c2F)c(F)c(F)c1Nc1ccc(I)cc1F [Compound E-15, 3,4-Difluoro-5-[[2-fluoro-3-(3-fluoropropylsulfonylamino)phenyl]methyl]-2-(2-fluoro-4-iodoanilino)benzamide] | 7 nM | 21 µL/min/mg | 287 nM | 4 nM | 20 nM | – | – | – | – | – | –
9 | CCCS(=O)(=O)Nc1cccc(Cc2cc(C(N)=O)c(Nc3ccc(I)cc3F)c(F)c2F)c1F [Compound E-18, 3,4-Difluoro-2-(2-fluoro-4-iodoanilino)-5-[[2-fluoro-3-(propylsulfonylamino)phenyl]methyl]benzamide] | 8 nM | 29 µL/min/mg | 366 nM | 5 nM | 7 nM | – | – | – | – | – | –
10 | NC(=O)c1cc(Cc2cccc(NS(=O)(=O)C3CCC3)c2F)c(F)c(F)c1Nc1ccc(I)cc1F [Compound E-20, 5-[[3-(Cyclobutylsulfonylamino)-2-fluorophenyl]methyl]-3,4-difluoro-2-(2-fluoro-4-iodoanilino)benzamide] | 11 nM | 18 µL/min/mg | 467 nM | 13 nM | 37 nM | – | – | – | – | – | –
11 | NC(=O)c1cc(Cc2cccc(NS(=O)(=O)C3COC3)c2F)c(F)c(F)c1Nc1ccc(I)cc1F [Compound E-21] | 14 nM | 13 µL/min/mg | 189 nM | 24 nM | 30 nM | – | – | – | – | – | –
12 | CS(=O)(=O)Nc1cccc(Cc2cc(C(=O)NC3CC3)c(Nc3ccc(I)cc3F)c(F)c2F)c1F [Compound E-25, N-Cyclopropyl-3,4-difluoro-2-(2-fluoro-4-iodoanilino)-5-[[2-fluoro-3-(methanesulfonamide)phenyl]methyl]benzamide] | – | – | 284 nM | – | – | 7 nM | 28 nM | 11 nM | – | – | –
13 | CNS(=O)(=O)Nc1cccc(Cc2cc(C(N)=O)c(Nc3ccc(I)cc3F)c(F)c2F)c1 [Compound F-1, 3,4-Difluoro-2-(2-fluoro-4-iodoanilino)-5-[[3-(methylsulfamoylamino)phenyl]methyl]benzamide] | 3 nM | 10 µL/min/mg | 246 nM | 5 nM | 7 nM | – | – | – | – | – | –
14 | COCCS(=O)(=O)Nc1cccc(Cc2cc(C(N)=O)c(Nc3ccc(I)cc3F)c(F)c2F)c1 [Compound F-3, 3,4-Difluoro-2-(2-fluoro-4-iodoanilino)-5-[[3-(2-methoxyethylsulfonylamino)phenyl]methyl]benzamide] | 24 nM | 28 µL/min/mg | 380 nM | 5 nM | 8 nM | – | – | – | – | – | –
15 | CNS(=O)(=O)Nc1nccc(Cc2cc(C(=O)NOC)c(Nc3ccc(Cl)cc3F)c(F)c2F)c1F [Compound G-4, 2-(4-Chloro-2-fluoroanilino)-3,4-difluoro-5-[[3-fluoro-2-(methylsulfamoylamino)pyridin-4-yl]methyl]-N-methoxybenzamide] | 12 nM | 26 µL/min/mg | 53 nM | 4 nM | 28 nM | – | – | – | – | – | –
16 | CNS(=O)(=O)Nc1nccc(Cc2cc(C(N)=O)c(Nc3ccc4sccc4c3)c(F)c2F)c1F [Compound H-2, 2-(1-Benzothiophen-5-ylamino)-3,4-difluoro-5-[[3-fluoro-2-(methylsulfamoylamino)pyridin-4-yl]methyl]benzamide] | 16 nM | 77 µL/min/mg | 49 nM | 2 nM | 31 nM | – | – | – | – | – | –
17 | CNS(=O)(=O)Nc1cccc(Cc2cc(C(N)=O)c(Nc3ccc(I)cc3F)c(F)c2F)n1 [Compound H-5, 3,4-Difluoro-2-(2-fluoro-4-iodoanilino)-5-[[6-(methylsulfamoylamino)pyridin-2-yl]methyl]benzamide] | 4 nM | 26 µL/min/mg | 115 nM | 2 nM | 6 nM | – | – | – | – | – | –
18 | CCNS(=O)(=O)Nc1nccc(Cc2cc(C(N)=O)c(Nc3ccc(I)cc3F)cc2F)c1F [Compound I-2, 5-[[2-(Ethylsulfamoylamino)-3-fluoropyridin-4-yl]methyl]-4-fluoro-2-(2-fluoro-4-iodoanilino)benzamide] | 11 nM | 12 µL/min/mg | 47 nM | 3 nM | 25 nM | – | – | – | – | – | –
19 | CCS(=O)(=O)Nc1cccc(Cc2cc(C(=O)NC3CC3)c(Nc3ccc(I)cc3F)n(C)c2=O)c1F [Compound K-8, N-Cyclopropyl-5-[[3-(ethylsulfonylamino)-2-fluorophenyl]methyl]-2-(2-fluoro-4-iodoanilino)-1-methyl-6-oxopyridine-3-carboxamide] | 29 nM | 103 µL/min/mg | 209 nM | 14 nM | 68 nM | – | – | – | – | – | –
20 | CNS(=O)(=O)Nc1nccc(Cn2cc(C(N)=O)c(Nc3ccc(I)cc3F)c(F)c2=O)c1F [Compound N-1, 5-Fluoro-4-(2-fluoro-4-iodoanilino)-1-[[3-fluoro-2-(methylsulfamoylamino)pyridin-4-yl]methyl]-6-oxopyridine-3-carboxamide] | 28 nM | 8 µL/min/mg | 1 nM | 2 nM | 20 nM | – | – | – | – | – | –
21 | CNS(=O)(=O)Nc1nccc(Cn2cc(C(N)=O)c(Nc3ccc(SC)cc3F)c(F)c2=O)c1F [Compound N-3, 5-Fluoro-1-[[3-fluoro-2-(methylsulfamoylamino)pyridin-4-yl]methyl]-4-(2-fluoro-4-methylsulfanylanilino)-6-oxopyridine-3-carboxamide] | – | 19 µL/min/mg | 4 nM | – | – | – | – | 5 nM | 311 nM | 475 nM | –
22 | CNS(=O)(=O)Nc1nccc(Cn2cc(C(N)=O)c(Nc3ccc(I)cc3F)c(C)c2=O)c1F [Compound P-1, 4-(2-Fluoro-4-iodoanilino)-1-[[3-fluoro-2-(methylsulfamoylamino)pyridin-4-yl]methyl]-5-methyl-6-oxopyridine-3-carboxamide] | 6 nM | 15 µL/min/mg | 2 nM | – | – | – | – | – | – | – | 22 nM
